Columns and labels:
[1] = tested on: NOTCH4 intracellular domain; test: NOTCH4 intracellular domain Western Blot in MCF-7 endocrine-resistant cells; assay type: cell-based, human; conditions: endocrine-resistant models; 72 h
Procedure: MCF7, T47D and ZR-75-1 cell lines were purchased from American Tissue Culture Collection (ATCC) and cultured in DMEM/F-12, GlutaMAX (Gibco) with 10% FBS (Gibco). […] MCF7 resistant cell lines were authenticated by comparative karyotyping to ATCC-derived MCF7. Proteins were extracted with Protein Lysis Buffer (25 mM HEPES, 50 mM NaCl, 30 mM NaPP, 50 mM NaF, 1% Triton-X-100, 10% Glycerol, 5 mM EDTA, Protease Inhibitor cocktail, 1 μM PMSF). Lysates were placed on a rotator for 1 hour at 4° C., then were centrifuged at 10000 g at 4° C. for 10 min, and supernatants were collected. Protein concentrations were assessed using the BCA Protein Assay Kit (Thermo Scientific, 23225). Proteins were separated on a 10% gel (Biorad, 456-1033) by SDS-PAGE at 200V for 1 hour, and then were transferred on polyvinylidene difluoride (PVDF) membranes (BioRad, 170-4157) at 25 V/1,300 mA for 15 min using a Trans Blot Turbo (BioRad, 170-4155). Membranes were blocked in a solution of PBS containing 0.05% Tween-20 and 5% skimmed milk (Marvel) for 1 h at room temperature and primary antibodies were incubated overnight at 4° C. […]

[2] = tested on: Notch target genes HEY1 and HES1; test: HEY1 and HES1 expression in TAMR, FULVR and parental MCF-7 cells; assay type: cell-based, human; conditions: TAMR and FULVR cell lines; 72 h
Procedure: MCF7, T47D and ZR-75-1 cell lines were purchased from American Tissue Culture Collection (ATCC) and cultured in DMEM/F-12, GlutaMAX (Gibco) with 10% FBS (Gibco). […] MCF7 resistant cell lines were authenticated by comparative karyotyping to ATCC-derived MCF7. Total RNA was extracted using the RNeasy Plus Mini Kit (QIAGEN, 74104) and the concentration and purity determined using an ND-1000 spectrophotometer (NanoDrop Technologies). Reverse transcription of 1 μg of RNA was performed with Oligo(dT) using the TaqMan Reverse Transcription Reagents from Applied Biosystems (N8080234). Samples were incubated on a thermal cycler (MJ Research) for 10 minutes at 25° C., 30 minutes at 48° C. and 5 minutes at 95° C. Quantitative real-time PCR reactions were set up in triplicate in 384-well plates and performed on the 7900 PCR machine (Applied Biosystems) using TaqMan® Universal PCR Master Mix (Applied Biosystems) and probes from Universal Probe Library (Roche). Conditions used for amplification of cDNA fragments were as follows: 95° C. for 5 min, 40 cycles of amplification-95 C for 15 sec, 60 C for 1 min. The expression levels were calculated using the ΔΔCt method and normalised to the housekeeping genes 36B4 and GAPDH. The sequences of the primers and probes used can be found in the table below.

[3] = tested on: HBC×22 and HBC×34 tamoxifen-resistant PDXs; test: BCSC activity (MFE, ALDH-positive cells) in tamoxifen-resistant PDXs treated in vivo; set-up: species or system mice; conditions: RO4929097 10 mg/kg/day oral gavage, 14 days
Procedure: Fulvestrant (kindly provided by Astrazeneca, 200 mg/kg/week) was administered by subcutaneous injection (0.1 ml/dose) on a weekly basis for fourteen days. […] Xenografts were collected in ice cold DMEM media for live cell assays, histological analysis and RNA and protein extraction. Patient-derived xenograft single cell suspension was obtained using a collagenase-hyaluronidase mixture for digestion (Stem Cell Technologies). […] Primary mammospheres were dissociated and replated in secondary mammosphere suspension culture for a further 7-9 days to measure self-renewal. Patient-derived xenograft cells were cultured for 7-10 days. For cell lines, cells were pre-treated in adherence and then cultured for 5 days in mammosphere culture. Mammosphere formation efficiency (MFE) was calculated by dividing the number of mammospheres formed (≧50 μm) by the original number of single cells seeded (500 cells/cm^2 for primary cells and 200 cells/cm^2 for cell lines) and is expressed as fold change normalised to control or as the mean percentage of MFE (Shaw et al., 2012). Dissociated single cells were suspended in Aldefluor assay buffer containing an ALDH substrate, bodipyaminoacetaldehyde (BAAA) at […], and incubated for 45 min at 37° C. […] Data were acquired on a LSR II (BD) flow cytometer and analysed using the BD FACSDiva™ software.

**Q.** With `CC(C)(C(=O)NCC(F)(F)C(F)(F)F)C(=O)N[C@@H]1C(=O)Nc2ccccc2-c2ccccc21` [RO4929097] as the compound, how does the “levels of the active NOTCH4 intracellular domain” value [1] read?
**A.** effective in reducing

**Q.** What about the “HEY1 and HES1 expression” value [2] of the same compound?
**A.** inhibited

**Q.** What about the “enrichment of BCSCs” value [3] of the same compound?
**A.** significantly reduced
